Our source for the IC90 and Ki values is ChEMBL document CHEMBL1150036, “Functionalized aliphatic P2/P2 analogs of HIV-1 protease inhibitor DMP323” (Bioorg Med Chem Lett, 1997).

One may read the IC90 as the point of the concentration-response curve where the effect stands at 90%. As a reminder, the Ki is a dissociation constant, usually derived from enzyme kinetics or from competition with a known ligand. High values mean weaker binding, low ones tighter binding.

Experiment [1] has as its system Human immunodeficiency virus 1. The experiment can be described thus: Inhibition of viral RNA production in HIV-1-infected MT-2 cells. The class given is functional. Conditions: Human immunodeficiency virus 1, MT2.
Experiment [2] addresses Human immunodeficiency virus type 1 protease (Human immunodeficiency virus 1, UniProt Q72874). The experiment is described as follows: Inhibitory activity against HIV-1 protease.
For experiment [3], the system named is MT2. The experiment can be described thus: Antiviral activity assessed in a cell based assay measuring the inhibition of viral RNA production in HIV-1-infected MT-2 cells at concentrations of up to 50 ug/mL; not active. Type of experiment: functional. Conditions: Homo sapiens.

The structures appear in SMILES notation. Calls of active or inactive are those of the source. No cut-off for these calls is given here.

In experiment [1], `O=C1N(CCCCCO)[C@H](Cc2ccccc2)[C@H](O)[C@@H](O)[C@@H](Cc2ccccc2)N1Cc1ccc(CO)cc1` showed an IC90 of 108 nM. For the same compound, the Ki in experiment [2] is 0.1 nM.

Consider `O=C1N(CCCCCO)[C@H](Cc2ccccc2)[C@H](O)[C@@H](O)[C@@H](Cc2ccccc2)N1Cc1cccc(O)c1`, for which, in experiment [1], the 90% effect concentration (IC90) stood at 36 nM. In addition, the Ki in experiment [2] amounted to 0.081 nM.

Regarding `COCCCCCN1C(=O)N(CCCCCOC)[C@H](Cc2ccccc2)[C@H](O)[C@@H](O)[C@H]1Cc1ccccc1`, the IC90 result in experiment [3] was “inactive”. This compound also came in with a Ki in experiment [2] of 96 nM.

The compound `O=C1N(CCCCCCO)[C@H](Cc2ccccc2)[C@H](O)[C@@H](O)[C@@H](Cc2ccccc2)N1CCCCCCO` returned an IC90 in experiment [1] of 1510 nM. Also, the Ki in experiment [2] was found to be 0.47 nM.

`O=C1N(CCCCCCO)[C@H](Cc2ccccc2)[C@H](O)[C@@H](O)[C@@H](Cc2ccccc2)N1Cc1ccc2ccccc2c1`: in experiment [1], it took 264 nM to reach the 90% level (IC90). This compound also returned a Ki in experiment [2] of 1.7 nM.

In experiment [1], `O=C1N(CCCCCO)[C@H](Cc2ccccc2)[C@H](O)[C@@H](O)[C@@H](Cc2ccccc2)N1Cc1ccc2ccccc2c1` gave a concentration for an effect of 90% (IC90) of 199 nM. Moreover, affinity in experiment [2] was put at a Ki of 0.24 nM.

`O=C(NCCCCCN1C(=O)N(CCCCCNC(=O)c2ccc(F)cc2)[C@H](Cc2ccccc2)[C@H](O)[C@@H](O)[C@H]1Cc1ccccc1)c1ccc(F)cc1`: the IC90 entry in experiment [3] is “inactive”. Besides, in experiment [2], affinity was put at a Ki of 18 nM.

With `CC(=O)NCCCCCN1C(=O)N(CCCCCNC(C)=O)[C@H](Cc2ccccc2)[C@H](O)[C@@H](O)[C@H]1Cc1ccccc1`, the IC90 entry in experiment [3] is “inactive”. This compound also gave an inhibition constant (Ki) in experiment [2] of 350 nM.

With `O=C(NCCCCCN1C(=O)N(CCCCCNC(=O)c2ccccc2)[C@H](Cc2ccccc2)[C@H](O)[C@@H](O)[C@H]1Cc1ccccc1)c1ccccc1`, in experiment [3], the IC90 result was “inactive”. Further, the Ki in experiment [2] turned out to be 59 nM.

Compound `O=C1N(CCCCCCCO)[C@H](Cc2ccccc2)[C@H](O)[C@@H](O)[C@@H](Cc2ccccc2)N1CCCCCCCO` registered an IC90 in experiment [1] of 9010 nM. The compound also yielded a Ki in experiment [2] of 34 nM.

`O=C(NCCCCCN1C(=O)N(CCCCCNC(=O)c2ccncc2)[C@H](Cc2ccccc2)[C@H](O)[C@@H](O)[C@H]1Cc1ccccc1)c1ccncc1` gave an IC90 in experiment [1] of 9900 nM. The Ki in experiment [2] came to 16 nM.

In the case of `NCCCCCN1C(=O)N(CCCCCN)[C@H](Cc2ccccc2)[C@H](O)[C@@H](O)[C@H]1Cc1ccccc1`, the IC90 entry in experiment [3] is “inactive”. This compound also showed a Ki in experiment [2] of 1250 nM.

As to `CNC(=O)NCCCCCN1C(=O)N(CCCCCNC(=O)NC)[C@H](Cc2ccccc2)[C@H](O)[C@@H](O)[C@H]1Cc1ccccc1`, the IC90 entry in experiment [3] was “inactive”. This compound also gave a Ki in experiment [2] of 270 nM.

In the case of `O=C(Cc1cccnc1)NCCCCCN1C(=O)N(CCCCCNC(=O)Cc2cccnc2)[C@H](Cc2ccccc2)[C@H](O)[C@@H](O)[C@H]1Cc1ccccc1`, in experiment [1], the 90% effect level (IC90) was put at 3130 nM. Also, the inhibitory constant (Ki) in experiment [2] turned out to be 8.9 nM.

With `COC(=O)CCCCCN1C(=O)N(CCCCCC(=O)OC)[C@H](Cc2ccccc2)[C@H](O)[C@@H](O)[C@H]1Cc1ccccc1`, the 90% effect level in experiment [1] (IC90) was put at 30900 nM. In experiment [2], this compound yielded a Ki of 29 nM.

`O=C1N(CCCCCO)[C@H](Cc2ccccc2)[C@H](O)[C@@H](O)[C@@H](Cc2ccccc2)N1Cc1ccccc1`: the IC90 in experiment [1] is 398 nM. Further, the Ki in experiment [2] is 0.68 nM.

`O=C1N(CCCCCO)[C@H](Cc2ccccc2)[C@H](O)[C@@H](O)[C@@H](Cc2ccccc2)N1CCCCCO` came in with a 90% effect concentration (IC90) in experiment [1] of 953 nM. Moreover, the affinity in experiment [2], expressed as Ki, was 1.4 nM.

The compound `O=C1N(CCCCCO)[C@H](Cc2ccccc2)[C@H](O)[C@@H](O)[C@@H](Cc2ccccc2)N1CC1CC1` gave an IC90 in experiment [1] of 814 nM. In addition, in experiment [2], the affinity, expressed as Ki, was 0.99 nM.

`O=C(O)CCCCCN1C(=O)N(CCCCCC(=O)O)[C@H](Cc2ccccc2)[C@H](O)[C@@H](O)[C@H]1Cc1ccccc1`: the IC90 entry in experiment [3] was “inactive”. In addition, the affinity in experiment [2], expressed as Ki, was 0.24 nM.

As for `O=C1N(CCCO)[C@H](Cc2ccccc2)[C@H](O)[C@@H](O)[C@@H](Cc2ccccc2)N1CCCO`, in experiment [3], the IC90 result was “inactive”. In experiment [2], this compound displayed a Ki of 51 nM.

The compound `O=C1N(CCCCCCCCO)[C@H](Cc2ccccc2)[C@H](O)[C@@H](O)[C@@H](Cc2ccccc2)N1CCCCCCCCO` came in with an IC90 in experiment [1] of 17200 nM. Affinity in experiment [2] was put at a Ki of 500 nM.

As for `CS(=O)(=O)NCCCCCN1C(=O)N(CCCCCNS(C)(=O)=O)[C@H](Cc2ccccc2)[C@H](O)[C@@H](O)[C@H]1Cc1ccccc1`, the IC90 result in experiment [3] is “inactive”. In experiment [2], this compound showed a Ki of 270 nM.

`O=C1N(CCCCO)[C@H](Cc2ccccc2)[C@H](O)[C@@H](O)[C@@H](Cc2ccccc2)N1CCCCO`: the IC90 in experiment [1] came to 22700 nM. Further, in experiment [2], affinity was put at a Ki of 42 nM.

In the case of `CCOC(=O)c1cccc(CN2C(=O)N(CCCCCO)[C@H](Cc3ccccc3)[C@H](O)[C@@H](O)[C@H]2Cc2ccccc2)c1`, the concentration for an effect of 90% (IC90) in experiment [1] came out at 365 nM. The same compound showed a Ki in experiment [2] of 0.72 nM.

On to `O=C1N(CCCCCO)[C@H](Cc2ccccc2)[C@H](O)[C@@H](O)[C@@H](Cc2ccccc2)N1Cc1cccc(CO)c1`, for which the IC90 in experiment [1] was 76 nM. Also, the Ki in experiment [2] stood at 0.058 nM.

As for `NCCCCN1C(=O)N(CCCCN)[C@H](Cc2ccccc2)[C@H](O)[C@@H](O)[C@H]1Cc1ccccc1`, the IC90 entry in experiment [3] is “inactive”. The same compound displayed a Ki in experiment [2] of 1250 nM.

In the case of `O=C(NCCCCCN1C(=O)N(CCCCCNC(=O)c2cccc(F)c2)[C@H](Cc2ccccc2)[C@H](O)[C@@H](O)[C@H]1Cc1ccccc1)c1cccc(F)c1`, in experiment [1], the concentration for an effect of 90% (IC90) came to 8770 nM. Also, the Ki in experiment [2] turned out to be 14 nM.
